The source made the active and inactive calls.
What was measured:
[1] = viability loss in HEK293 cells – cell-based, plate reader, cherry-picked samples, cytotoxicity control, dose response (AID 743446); assay type: functional
Caspase-9 = Caspase-9 (Homo sapiens, UniProt P55211); test: inhibitors of purified CASP9 protease – biochemical, fluorescence, plate reader, cherry-picked samples, selectivity assay for caspase-6 inhibitor project, dose response (AID 743293)
[2] = molecular target: T1, DNA repair and recombination protein RAD54-like (Homo sapiens, UniProt Q92698); test: RAD54 Holliday junction migration blockers – biochemical, fluorescence, cherry-picked samples, dose series, confirmation (AID 651657); assay type: functional
T1 sequence (Q92698 whole entry): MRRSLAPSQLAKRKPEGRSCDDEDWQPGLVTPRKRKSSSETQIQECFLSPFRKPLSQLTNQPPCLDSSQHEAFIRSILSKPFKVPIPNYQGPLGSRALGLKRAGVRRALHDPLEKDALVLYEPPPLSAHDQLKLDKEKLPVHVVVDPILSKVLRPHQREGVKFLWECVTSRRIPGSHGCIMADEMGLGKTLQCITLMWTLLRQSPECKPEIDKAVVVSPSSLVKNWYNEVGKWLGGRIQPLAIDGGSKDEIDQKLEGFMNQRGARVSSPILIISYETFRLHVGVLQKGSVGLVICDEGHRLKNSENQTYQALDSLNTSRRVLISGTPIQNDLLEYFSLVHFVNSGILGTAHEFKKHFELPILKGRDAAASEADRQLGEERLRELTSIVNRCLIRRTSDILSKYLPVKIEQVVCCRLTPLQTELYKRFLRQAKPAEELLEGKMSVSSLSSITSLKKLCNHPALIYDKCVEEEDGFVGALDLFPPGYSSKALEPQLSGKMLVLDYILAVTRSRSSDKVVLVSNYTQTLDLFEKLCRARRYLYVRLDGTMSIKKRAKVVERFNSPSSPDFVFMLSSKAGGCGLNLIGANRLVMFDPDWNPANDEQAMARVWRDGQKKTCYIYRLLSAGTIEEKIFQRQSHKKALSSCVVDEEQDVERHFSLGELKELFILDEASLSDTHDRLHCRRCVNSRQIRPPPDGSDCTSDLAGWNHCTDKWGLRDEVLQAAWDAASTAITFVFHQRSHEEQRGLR

[3] = molecular target: Protein disulfide-isomerase A6 (Homo sapiens, UniProt Q15084); test: reduced insulin turbidity driven by ERp5 (PDIA6) – biochemical, absorbance 650 nm, cherry-picked samples, dose response (AID 720566)
Sequence of Protein disulfide-isomerase A6 (Q15084 whole entry): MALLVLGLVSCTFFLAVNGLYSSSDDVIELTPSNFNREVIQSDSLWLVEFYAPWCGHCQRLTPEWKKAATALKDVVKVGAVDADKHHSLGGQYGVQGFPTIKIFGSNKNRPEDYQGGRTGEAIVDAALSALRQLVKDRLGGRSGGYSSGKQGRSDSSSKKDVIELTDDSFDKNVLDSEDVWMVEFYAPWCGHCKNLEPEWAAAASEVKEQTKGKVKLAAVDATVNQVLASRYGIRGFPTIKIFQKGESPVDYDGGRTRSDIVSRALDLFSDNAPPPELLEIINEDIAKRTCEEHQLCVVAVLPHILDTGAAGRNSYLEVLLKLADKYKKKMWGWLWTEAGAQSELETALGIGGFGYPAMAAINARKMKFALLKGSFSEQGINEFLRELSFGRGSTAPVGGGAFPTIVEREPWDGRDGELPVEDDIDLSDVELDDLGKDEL

[4] = molecular target: Dual specificity protein phosphatase 3 (Homo sapiens, UniProt P51452); test: VHR1 phosphatase inhibitors, primary screen, biochemical, absorbance, uHTS (AID 1654)
Sequence of Dual specificity protein phosphatase 3 (P51452 whole entry): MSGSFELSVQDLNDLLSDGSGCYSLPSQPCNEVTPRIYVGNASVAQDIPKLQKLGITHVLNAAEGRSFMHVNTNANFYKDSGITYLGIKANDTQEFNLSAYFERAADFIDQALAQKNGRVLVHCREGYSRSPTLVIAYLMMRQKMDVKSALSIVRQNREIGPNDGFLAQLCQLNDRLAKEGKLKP

[5] = molecular target: Ras and Rab interactor 1/Tyrosine-protein kinase ABL1 (Homo sapiens, UniProt P00519+Q13671); assay type: functional;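 note: biochemical TR-FRET dose-response test measuring inhibition of binding between Rin1 and Abl proteins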
Sequence of Ras and Rab interactor 1/Tyrosine-protein kinase ABL1 (P00519 whole entry): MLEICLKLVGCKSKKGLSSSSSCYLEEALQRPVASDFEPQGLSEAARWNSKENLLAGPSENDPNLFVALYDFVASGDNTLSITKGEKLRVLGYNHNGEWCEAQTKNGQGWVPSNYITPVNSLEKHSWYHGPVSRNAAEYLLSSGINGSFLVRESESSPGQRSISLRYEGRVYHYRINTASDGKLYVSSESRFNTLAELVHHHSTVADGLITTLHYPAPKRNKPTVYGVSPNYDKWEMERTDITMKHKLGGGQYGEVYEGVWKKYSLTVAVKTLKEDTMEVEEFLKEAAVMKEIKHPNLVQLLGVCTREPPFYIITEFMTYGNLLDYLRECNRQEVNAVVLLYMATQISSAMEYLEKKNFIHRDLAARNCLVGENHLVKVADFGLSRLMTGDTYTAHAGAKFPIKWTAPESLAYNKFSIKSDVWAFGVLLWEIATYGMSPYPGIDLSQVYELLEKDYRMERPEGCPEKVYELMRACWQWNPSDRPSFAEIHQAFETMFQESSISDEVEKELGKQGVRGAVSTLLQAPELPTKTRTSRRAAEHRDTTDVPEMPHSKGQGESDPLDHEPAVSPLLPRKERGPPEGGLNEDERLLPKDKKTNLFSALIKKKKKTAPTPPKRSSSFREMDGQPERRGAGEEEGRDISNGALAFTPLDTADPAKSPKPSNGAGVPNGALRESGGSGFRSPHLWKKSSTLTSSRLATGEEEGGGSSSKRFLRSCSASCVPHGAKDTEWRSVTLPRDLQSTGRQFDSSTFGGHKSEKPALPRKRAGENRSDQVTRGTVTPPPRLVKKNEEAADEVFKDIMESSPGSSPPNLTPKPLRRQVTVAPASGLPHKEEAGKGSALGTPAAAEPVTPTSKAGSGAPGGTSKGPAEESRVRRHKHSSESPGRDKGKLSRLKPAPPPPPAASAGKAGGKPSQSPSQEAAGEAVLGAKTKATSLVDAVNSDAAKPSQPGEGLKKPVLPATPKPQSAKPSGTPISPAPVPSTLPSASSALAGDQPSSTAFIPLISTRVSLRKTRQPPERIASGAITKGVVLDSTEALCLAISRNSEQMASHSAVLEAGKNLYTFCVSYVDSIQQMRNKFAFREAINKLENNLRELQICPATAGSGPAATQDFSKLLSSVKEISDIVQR
Sequence of Ras and Rab interactor 1/Tyrosine-protein kinase ABL1 (Q13671 whole entry): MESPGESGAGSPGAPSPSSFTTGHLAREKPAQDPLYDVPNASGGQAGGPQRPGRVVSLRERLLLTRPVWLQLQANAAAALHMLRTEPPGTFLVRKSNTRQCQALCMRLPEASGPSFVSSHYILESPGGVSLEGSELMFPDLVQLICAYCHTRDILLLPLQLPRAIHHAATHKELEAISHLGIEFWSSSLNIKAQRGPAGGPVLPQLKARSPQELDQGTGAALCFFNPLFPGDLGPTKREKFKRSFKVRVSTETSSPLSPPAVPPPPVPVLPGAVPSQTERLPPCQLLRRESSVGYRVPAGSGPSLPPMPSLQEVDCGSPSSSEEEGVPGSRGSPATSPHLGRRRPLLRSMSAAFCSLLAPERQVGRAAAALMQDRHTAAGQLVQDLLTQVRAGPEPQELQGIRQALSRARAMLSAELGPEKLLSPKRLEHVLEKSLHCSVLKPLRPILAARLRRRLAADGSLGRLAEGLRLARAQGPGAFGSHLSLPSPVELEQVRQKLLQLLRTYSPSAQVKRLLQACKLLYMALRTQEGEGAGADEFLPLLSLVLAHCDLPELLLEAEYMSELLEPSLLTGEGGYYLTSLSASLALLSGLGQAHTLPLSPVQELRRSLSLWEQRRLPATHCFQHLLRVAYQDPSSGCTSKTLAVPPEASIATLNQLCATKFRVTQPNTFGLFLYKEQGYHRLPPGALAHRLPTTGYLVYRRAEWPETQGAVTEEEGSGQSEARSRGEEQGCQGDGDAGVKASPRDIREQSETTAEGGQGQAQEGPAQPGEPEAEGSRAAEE

Caspase-3 = molecular target: T2, Caspase-3 (Homo sapiens, UniProt P42574); assay type: functional;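 note: Dose-response selectivity test against caspase-3 for candidate inhibitors of sentrin-specific proteases (SENPs)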
T2 sequence (P42574 whole entry): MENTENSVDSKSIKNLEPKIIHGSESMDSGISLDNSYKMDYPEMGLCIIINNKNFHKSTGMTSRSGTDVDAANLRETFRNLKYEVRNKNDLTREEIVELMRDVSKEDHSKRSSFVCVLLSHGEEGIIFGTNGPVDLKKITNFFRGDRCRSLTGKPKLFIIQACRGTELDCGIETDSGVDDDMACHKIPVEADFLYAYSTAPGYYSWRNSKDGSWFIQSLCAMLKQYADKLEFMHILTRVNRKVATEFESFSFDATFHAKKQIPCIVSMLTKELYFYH

[6] = molecular target: MAP kinase-activated protein kinase 2 (Homo sapiens, UniProt P49137); assay type: functional;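 note: measured as one member of a kinome-wide kinase panel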
[7] = molecular target: Serine/threonine-protein kinase 3 (Homo sapiens, UniProt Q13188); assay type: functional;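 note: measured as one member of a kinome-wide kinase panel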
Sequence of Serine/threonine-protein kinase 3 (Q13188 whole entry): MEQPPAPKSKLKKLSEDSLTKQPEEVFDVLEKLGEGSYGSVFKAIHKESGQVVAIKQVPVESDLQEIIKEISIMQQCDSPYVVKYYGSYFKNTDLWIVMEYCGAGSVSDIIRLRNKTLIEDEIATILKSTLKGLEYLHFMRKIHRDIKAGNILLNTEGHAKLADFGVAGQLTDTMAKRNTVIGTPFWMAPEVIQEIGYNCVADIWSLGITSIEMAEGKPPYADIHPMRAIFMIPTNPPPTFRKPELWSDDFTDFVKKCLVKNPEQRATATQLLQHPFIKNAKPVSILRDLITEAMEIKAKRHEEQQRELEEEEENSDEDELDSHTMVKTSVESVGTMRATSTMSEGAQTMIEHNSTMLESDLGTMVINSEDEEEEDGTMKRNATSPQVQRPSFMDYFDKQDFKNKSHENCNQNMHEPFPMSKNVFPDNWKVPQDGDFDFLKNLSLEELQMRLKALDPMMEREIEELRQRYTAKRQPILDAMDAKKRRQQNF

[8] = molecular target: MAP/microtubule affinity-regulating kinase 3 (Homo sapiens, UniProt P27448); assay type: functional;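 note: MARK3 affinity measured as one member of a kinome panel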
Sequence of MAP/microtubule affinity-regulating kinase 3 (P27448 whole entry): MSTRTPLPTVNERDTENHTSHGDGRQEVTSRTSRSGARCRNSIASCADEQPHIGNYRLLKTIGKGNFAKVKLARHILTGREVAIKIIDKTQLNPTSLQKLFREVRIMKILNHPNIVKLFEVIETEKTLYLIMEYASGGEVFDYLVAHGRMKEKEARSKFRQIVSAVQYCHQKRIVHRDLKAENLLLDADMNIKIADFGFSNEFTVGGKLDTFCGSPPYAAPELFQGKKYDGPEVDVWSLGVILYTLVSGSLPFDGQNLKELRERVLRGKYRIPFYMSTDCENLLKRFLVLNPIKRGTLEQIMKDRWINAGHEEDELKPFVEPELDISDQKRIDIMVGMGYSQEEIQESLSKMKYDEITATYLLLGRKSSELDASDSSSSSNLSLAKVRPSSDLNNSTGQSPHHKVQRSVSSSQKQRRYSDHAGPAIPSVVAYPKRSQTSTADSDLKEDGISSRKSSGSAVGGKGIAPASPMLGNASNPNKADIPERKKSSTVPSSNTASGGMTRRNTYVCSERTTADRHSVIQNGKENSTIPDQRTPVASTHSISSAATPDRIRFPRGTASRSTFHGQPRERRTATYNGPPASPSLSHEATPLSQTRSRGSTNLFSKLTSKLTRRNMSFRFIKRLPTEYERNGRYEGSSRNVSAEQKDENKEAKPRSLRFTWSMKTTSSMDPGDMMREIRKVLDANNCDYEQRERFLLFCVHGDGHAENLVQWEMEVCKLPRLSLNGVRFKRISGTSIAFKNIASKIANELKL

[9] = molecular target: RAC-alpha serine/threonine-protein kinase (Homo sapiens, UniProt P31749); assay type: functional;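 note: AKT1 affinity measured as one member of a kinome-wide kinase profiling panel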
Sequence of RAC-alpha serine/threonine-protein kinase (P31749 whole entry): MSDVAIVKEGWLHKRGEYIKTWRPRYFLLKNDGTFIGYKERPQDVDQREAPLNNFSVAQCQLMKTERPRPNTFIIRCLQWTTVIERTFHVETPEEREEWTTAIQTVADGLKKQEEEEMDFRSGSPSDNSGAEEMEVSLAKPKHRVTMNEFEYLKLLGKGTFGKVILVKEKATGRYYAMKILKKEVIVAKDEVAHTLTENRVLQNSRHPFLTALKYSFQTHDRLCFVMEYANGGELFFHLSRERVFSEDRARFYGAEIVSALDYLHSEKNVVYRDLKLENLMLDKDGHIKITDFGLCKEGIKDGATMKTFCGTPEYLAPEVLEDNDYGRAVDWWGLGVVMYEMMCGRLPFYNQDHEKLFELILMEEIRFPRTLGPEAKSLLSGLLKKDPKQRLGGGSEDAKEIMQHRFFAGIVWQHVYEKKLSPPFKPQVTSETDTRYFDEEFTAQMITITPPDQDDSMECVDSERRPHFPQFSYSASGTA

[10] = molecular target: Calcium/calmodulin-dependent protein kinase type II subunit beta (Homo sapiens, UniProt Q13554); assay type: functional
[11] = molecular target: Insulin-like growth factor 1 receptor (Homo sapiens, UniProt P08069); test: Navigating the Kinome. Panel member name: IGF1R; assay type: functional
[12] = molecular target: Tyrosine-protein kinase ABL1 (Homo sapiens, UniProt P00519); assay type: functional
Sequence of Tyrosine-protein kinase ABL1 (P00519 whole entry): as the sequence (P00519 whole entry) above

[13] = molecular target: Inhibitor of nuclear factor kappa-B kinase subunit alpha (Homo sapiens, UniProt O15111); assay type: functional
Insulin receptor = Insulin receptor (Homo sapiens, UniProt P06213); assay type: functional;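 note: insulin receptor kinase tested as one member of a kinome-wide kinase panel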
[14] = molecular target: T3, Testis-specific serine/threonine-protein kinase 2 (Homo sapiens, UniProt Q96PF2); assay type: functional;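 note: part of the Navigating the Kinome panel, target entry STK22B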
T3 sequence (Q96PF2 whole entry): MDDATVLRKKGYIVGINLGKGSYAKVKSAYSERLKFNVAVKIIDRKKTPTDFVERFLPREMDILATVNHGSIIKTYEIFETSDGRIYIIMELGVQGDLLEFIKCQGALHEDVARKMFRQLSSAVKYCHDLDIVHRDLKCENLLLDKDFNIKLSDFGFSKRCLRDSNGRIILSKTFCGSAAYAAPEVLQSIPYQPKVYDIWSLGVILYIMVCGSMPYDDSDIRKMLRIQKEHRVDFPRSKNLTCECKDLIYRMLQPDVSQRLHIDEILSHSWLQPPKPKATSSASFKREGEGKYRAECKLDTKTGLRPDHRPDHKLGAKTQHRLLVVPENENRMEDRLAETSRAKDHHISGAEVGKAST

[15] = molecular target: Calcium/calmodulin-dependent protein kinase type II subunit gamma (Homo sapiens, UniProt Q13555); assay type: functional
Sequence of Calcium/calmodulin-dependent protein kinase type II subunit gamma (Q13555 whole entry): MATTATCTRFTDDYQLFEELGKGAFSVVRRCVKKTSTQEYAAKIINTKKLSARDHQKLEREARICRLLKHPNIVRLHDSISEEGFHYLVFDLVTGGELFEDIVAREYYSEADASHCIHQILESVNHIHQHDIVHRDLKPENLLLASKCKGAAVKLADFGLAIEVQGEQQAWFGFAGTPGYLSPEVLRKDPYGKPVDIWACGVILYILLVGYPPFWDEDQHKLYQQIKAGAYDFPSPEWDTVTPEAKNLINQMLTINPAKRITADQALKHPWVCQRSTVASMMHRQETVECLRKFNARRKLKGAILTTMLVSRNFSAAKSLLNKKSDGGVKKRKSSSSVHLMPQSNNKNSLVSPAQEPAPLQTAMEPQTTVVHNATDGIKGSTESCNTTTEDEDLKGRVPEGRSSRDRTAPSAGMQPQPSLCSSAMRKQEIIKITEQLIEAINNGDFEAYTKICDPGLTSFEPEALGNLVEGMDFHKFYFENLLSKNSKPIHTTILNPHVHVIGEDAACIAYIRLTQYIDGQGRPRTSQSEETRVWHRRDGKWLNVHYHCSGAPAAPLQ

SMILES: CCCc1nc2c(=O)n(C)c(=O)nc-2n(C)n1
- AC50 [1]: 27100 nM (active)
- AC50 (Caspase-9): 214 nM (active)
- AC50 [2]: 1130 nM (active)
- AC50 [3]: 513 nM (active)
- IC50 [4]: < 980 nM (inactive)
- IC50 [5]: 527 nM (active)

SMILES: CC(=O)c1ccc(NC2=C(N3CCOCC3)C(=O)c3ccccc3C2=O)cc1
- IC50 (Caspase-3): 30000 nM (active)

SMILES: COc1cc2ncn(-c3cc(OCc4ccccc4C(F)(F)F)c(C(N)=O)s3)c2cc1OC [GW843682X]
- Ki [6]: > 7940 nM (inactive)
- Ki [7]: 200 nM (active)
- Ki [8]: > 6310 nM (inactive)
- Ki [9]: > 7940 nM (inactive)
- Ki [10]: > 7940 nM (inactive)
- Ki [11]: > 1000 nM (inactive)
- Ki [12]: > 631 nM (inactive)
- Ki [13]: > 3980 nM (inactive)
- Ki (Insulin receptor): > 5010 nM (inactive)
- Ki [14]: 63.1 nM (active)
- Ki [15]: > 6310 nM (inactive)
